Test results as given in US20230242544A1, “QUINAZOLINE COMPOUNDS, PREPARATION METHODS AND USES THEREOF” (INVENTISBIO CO., LTD., priority 2020, published 2023).

Columns and labels:
Ba/F3_KRAS^G12D cells = Ba/F3_KRAS^G12D cells (Homo sapiens, UniProt P01116, G12D, cells depend on it); assay: Ba/F3 KRAS G12D cell proliferation assay (CellTiter-Glo); assay type: cell-based; settings: treated for 3 days, cell-titer Glo, cell growth inhibition, read-out: BaF3_KRAS^G12D IC50
Method in brief: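 KRAS G12D-transduced Ba/F3 cells, IL3-independent and puromycin-selected, seeded at 5×10^3/well overnight, then given serially diluted compound for 3 days. Proliferation read by CellTiter-Glo luminescence. IC50 from a four-parameter logistic fit with Hill slope.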

[1] = target: recombinant human KRAS^G12D protein (Homo sapiens, UniProt P01116, G12D); assay: Temperature-dependent Fluorescence (TdF) KRAS G12D protein binding assay; settings: 6 μM KRAS^G12D protein, 10 μM compound, Sypro Orange; Kd calculated from the fluorescent shift
Method in brief: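 Thermal-shift binding with Sypro Orange: 6 μM KRAS^G12D and 10 μM compound in 25 mM HEPES pH 7.5, 150 mM NaCl, 10 mM MgCl2, 1% DMSO. Binding read as ΔTm with versus without compound; Kd calculated from the degree of fluorescence shift.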

recombinant human KRAS^G12D protein, sequence (P01116 1-188 isoform P01116-2 G12D): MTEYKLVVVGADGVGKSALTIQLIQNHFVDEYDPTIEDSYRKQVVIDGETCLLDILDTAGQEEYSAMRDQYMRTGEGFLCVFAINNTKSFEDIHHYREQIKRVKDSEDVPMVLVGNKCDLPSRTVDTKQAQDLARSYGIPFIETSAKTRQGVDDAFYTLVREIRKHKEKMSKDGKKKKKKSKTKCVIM
Ba/F3_KRAS^G12D cells, sequence (P01116 whole entry G12D): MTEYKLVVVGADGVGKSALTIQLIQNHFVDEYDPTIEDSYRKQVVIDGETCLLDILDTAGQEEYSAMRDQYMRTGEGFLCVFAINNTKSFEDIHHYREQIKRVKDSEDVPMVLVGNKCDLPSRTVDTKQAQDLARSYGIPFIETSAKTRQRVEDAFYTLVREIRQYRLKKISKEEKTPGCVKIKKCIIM

GI50 (Ba/F3_KRAS^G12D cells): > 5 µM | Kd [1]: 0.5 to 5 µM
SMILES: Nc1cccc(F)c1-c1c(Cl)cc2c(N3CC4CCC(C3)N4)nc(OCC34CCCN3CCC4)nc2c1F [Compound 32]
